In article PMC8593678, “Berberine Improves Irinotecan-Induced Intestinal Mucositis Without Impairing the Anti-colorectal Cancer Efficacy of Irinotecan by Inhibiting Bacterial β-glucuronidase” (Frontiers in Pharmacology, 2021):

Molecular target: T1, β-glucuronidase (GUS) (Escherichia coli, UniProt P05804)
T1 construct: gene uidA
Assay: fluorescent 4-MUG hydrolysis assay with purchased E. coli GUS; Lineweaver-Burk plots
Assay type: biochemical

T1 sequence (P05804 whole entry): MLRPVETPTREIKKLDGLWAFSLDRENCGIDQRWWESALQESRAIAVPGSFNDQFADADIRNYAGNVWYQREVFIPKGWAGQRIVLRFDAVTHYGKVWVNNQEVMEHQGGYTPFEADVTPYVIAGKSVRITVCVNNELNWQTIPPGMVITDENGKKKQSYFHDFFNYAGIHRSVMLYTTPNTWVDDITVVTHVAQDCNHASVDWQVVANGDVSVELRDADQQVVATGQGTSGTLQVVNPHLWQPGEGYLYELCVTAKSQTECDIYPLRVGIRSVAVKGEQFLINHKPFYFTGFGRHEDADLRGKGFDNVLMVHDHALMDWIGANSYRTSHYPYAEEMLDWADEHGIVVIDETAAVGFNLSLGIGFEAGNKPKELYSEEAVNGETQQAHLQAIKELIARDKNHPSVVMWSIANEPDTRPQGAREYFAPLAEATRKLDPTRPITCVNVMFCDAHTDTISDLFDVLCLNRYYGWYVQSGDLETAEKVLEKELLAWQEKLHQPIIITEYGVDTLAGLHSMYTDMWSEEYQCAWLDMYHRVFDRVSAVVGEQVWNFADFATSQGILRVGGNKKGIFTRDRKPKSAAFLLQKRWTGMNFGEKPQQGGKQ

Question: How did the IC50 turn out when `COc1ccc2cc3[n+](cc2c1OC)CCc1cc2c(cc1-3)OCO2` [Berberine, 9,10-dimethoxy-5,6-dihydro-(1,3)dioxolo (4,5-g)isoquinolino (3,2-a)isoquinolin-7-ium] was run?
Answer: 54 ± 5.1 µM
